# System: human tumor xenograft models
# Test: Antitumor activity in human tumor xenograft mice models
# Type: in vivo
# Settings: five human tumor xenograft models in nude mice, i.v. on day 1, 8, 15, and 22
# Text: This included starting tumor volumes in the range of approximately 80-110 mm^3 but also initial starting tumor volumes of up to approximately 400 mm^3. Furthermore, in most cases therapy with albumin-binding maytansinoids 30 and 31 induced long-term remissions and a decrease in Relative Tumor Volume (RTV). […] Experimental procedure and the results in the tumor-bearing mice models are described in detail in Examples 11-19 and FIGS. 3-16.
# Female immunodeficient NMRI nude mice, from Charles River, received unilateral tumor implants subcutaneously in the left flank while under isoflurane anesthesia with human cancer tumors until tumors were palpable and had reached a volume of 80-200 mm^3 (unless otherwise stated).
# Animals were kept in cages, the temperature inside the cages maintained at 25±1° C. with a relative humidity of 45-65% and an air change rate in the cage of 60-fold per hour. They were kept under a 14 h light: 10 h dark, artificial light cycle. The animals were fed with autoclaved Teklad Global 19% Protein Extruded Diet (T.2019S.12) from Envigo RMS SARL and had access to sterile filtered and acidified (pH 2.5) tap water, which was changed twice weekly. Feed and water were provided ad libitum. […] Animals were routinely monitored twice daily on working days and daily on Saturdays and Sundays. […] Relative body weights (RBW) of individual animals were calculated by dividing the individual absolute body weight on day X (BWx) by the individual body weight on the day of randomization multiplied by 100%. The tumor volume was determined by a two-dimensional measurement with calipers on the day of randomization (day 0) and then twice weekly. Tumor volumes were calculated according to the following equation: Tumor Vol [mm^3]=1 [mm]×w^2 [mm^2]×0.5, where “1” is the length and “w” is width of the tumor. The relative volume of an individual tumor on day X (RTVx) was calculated by dividing the absolute individual tumor volume [mm^3] of the respective tumor on day X (Tx) by the absolute individual tumor volume of the same tumor on the day of randomization multiplied by 100%. […]
smiles,measurement,value
COc1cc2cc(c1Cl)N(C)C(=O)C[C@H](OC(=O)COc1cccc(/C(C)=N/NC(=O)c3ccc(NC(=O)CCCCCN4C(=O)C=CC4=O)cc3S(=O)(=O)O)c1)[C@]1(C)O[C@H]1[C@H](C)[C@@H]1C[C@@](O)(NC(=O)O1)[C@H](OC)/C=C/C=C(\C)C2 [Compound 31],antitumor activity,partial and complete tumor regressions

# Source: US11572373B2, “Maytansinoid-based drug delivery systems” (LADRX CORPORATION, priority 2017, dated 2023)
